Laboratory results reported in patent US20260083698A1, “Synergistic Stimulation of Mucociliary Clearance to Treat Mucus Obstruction in Cystic Fibrosis and Other Muco-Obstructive Disorders” (The Board of Trustees of the Leland Stanford Junior …, priority 2022, published 2026).

What was measured:
pig tracheal mucosa = assay: Short circuit current (Isc) and conductance, Ussing chamber, pig; settings: pig tracheal mucosa; sequential 10 μM forskolin, 0.3 μM carbachol, 10 μM benzamil, 20 μM BPO-27, 200 μM niflumic acid
Source text: FIG. 4. Combined agonists inhibit sodium absorption and stimulate anion secretion by surface epithelia. (A) Cartoon of two electrogenic, ion transport pathways across airway apical epithelium: anion secretion increases surface fluid, Na+ absorption decreases surface fluid. The two pathways have opposite effects on fluid depth, but additive effects on short circuit current (Isc) because of their opposite valence and transport directions. (B) Raw trace of Isc across pig tracheal epithelium using Chart 4 software. After reaching a stable, unstimulated Isc (here, >2 h post-mounting), 10 μM forskolin, 0.3 μM carbachol, 10 μM benzamil, 20 μM benzopyrimido-pyrrolo-oxazinedione (BPO-27) and 200 μM niflumic acid were sequentially added at times shown. (C, D) Pig tracheal mucosa: averaged Δ Isc plots over time in response to (C) forskolin alone followed by forskolin+carbachol and (D) reversed order of agonist addition. (E & F) Ferret tracheal mucosa: averaged A Isc plots with same protocol as for pigs. Pig traces (C, D) are based on 10-12 experiments with tissues from 6 to 7 pigs. Ferret traces (E, F) are from 7 experiments with tissues from 5 ferrets.
Combined agonists stimulate epithelial surface anion secretion and inhibit Na^+ absorption. The surface epithelia also modify ASL. FIG. 4A is a cartoon of the main ion flows controlling ASL depth: anion-mediated fluid secretion increases, and Na^+-mediated fluid absorption decreases ASL depth. It was hypothesized that the combined agonists increase ASL depth and thus MCCV by stimulating secretion and inhibiting absorption (see also FIG. 6). […] With no counterbalancing absorption ASL depth is predicted to increase (dotted gold line in FIG. 6A) unless MCCV increases.
Inhibiting Na+ absorption would increase net fluid accumulation on the surface. […]
Electrophysiology. […] Total tissue conductance was calculated by applying Ohm's law to the Isc deflection resulting from a 1 mV pulse across the tissues every 20 s during the experiment. […]

WT piglet tracheas = assay: Mucociliary clearance velocity (MCCV) in ex vivo WT piglet tracheas; set-up: species or system pig
Method: MCCV in tracheas was measured from 2 to 5 days old WT piglets (see “Methods” section for details). […] The 8 piglet tracheas were divided into two groups and tested 4 by applying forskolin first and 4 by applying carbachol first, followed by the combined agonists.
These experiments used forskolin to elevate cAMP.
Pig tissues. Newborn WT piglet tracheas (2-5 days old) were directly obtained at the swine facility of UC Davis or from the laboratory of David Stoltz, University of Iowa, via overnight priority express. Postmortem (<1 h) tracheas from young adult Yorkshire pigs (30-50 kg) and 5-12 months old M. putorius ferrets were from animal facilities at Stanford and Gilroy/CA. All methods using animal tracheae were carried out in accordance with relevant guidelines and regulations of Stanford University and animal protocols were approved (Stanford IACUC protocol#: 10,048). Piglet tracheas were shipped in DMEM cell culture medium, other animal tissues were transported to the laboratory in cold PhysioSol™ solution (Hospira, IL/USA) and then transferred to icecold Krebs Ringer bicarbonate (KRB) buffer gassed with 95% O2 and 5% CO2 and kept at 4° C. until use. The KRB buffer contained (in mM): 115 NaCl, 25 NaHCO3, 2.4 K2HPO4, 0.4 KH2PO4, 1.2 MgCl2, 1.2 CaCl2, 10 glucose, and 1.0 μM indomethacin, adjusted to pH 7.2 and ˜290 mOsm at room temperature.
MCCV measurement. Details are in the previous reports (16,59,60). Briefly, each whole length ferret or piglet trachea, or a CF tracheal trim, was cut open along the mid-dorsal line and mounted mucosal side up onto a Sylgard elastomer platform. […] The prepared trachea was placed into a sealed, humidified chamber bubbled continuously with gas (95%/5%-O2/CO2) with the serosal surface bathed with KRB buffer±drugs. […] Then excess apical solution was drained, and tissue was incubated for an additional 10 min before starting baseline measurements of MCCV. Drugs were added by bath replacement with pre-warmed bath+drug(s). Summary MCCV data are reported as a single number and based on the averaged MCCV during the last 20 min of the treatment period unless stated otherwise.
MCCV (all values are in mm/min) was then measured for 90-120 min and plotted as MCCV vs time and agonist(s) in FIG. 8.
It was hypothesized that the synergistic MCC induced by β-adrenergic and cholinergic agonists involved ENaC inhibition.

[1] = test system: sheep with induced CF airway disease; assay: Tracheal mucus velocity (TMV) in sheep CF model (CFTRinh172 + hNE); format: in vivo; settings: inhalation, 20 μg Formoterol
Method: Briefly, adult sheep are placed in an upright position in a specialized body harness and under local anesthesia the animals are nasally intubated with a standard endotracheal (ET) tube. Tracheal mucus velocity (TMV), the in vivo equivalent of MCCV, is measured by a fluoroscopic technique. Five to seven radiopaque Teflon/bismuth trioxide disks (1 mm in diameter, 0.8-mm in thickness, and 1.8 mg in weight) are insufflated into the mid-portion of the animal's trachea. Once the disks are delivered into the trachea, the cephalad-axial velocity of each individual disk is recorded on videotape from a portable image intensifier unit in-line with the fluoroscope. The mean value of all the disk velocities is calculated for a given time point, with new disks insufflated pat subsequent time points. After baseline values are determined, animals receive by aerosolization 10 mg of CFTRinh172 and TMV measurements are repeated hourly for the following 2 hours. Then the animals receive by aerosolization 1190 mU of human Neutrophil Elastase (hNE) and TMV measurements are repeated hourly for the following 2 hours. […] Methacholine alone was not tested as this will induce severe bronchospasm and compromise the life of the animal. After test agent administration by inhalation, the TMV was measured hourly for 12 hours and at 24 hours.

ex vivo WT pig tracheas = assay: ASL height by synchrotron-based phase contrast imaging; settings: 10 μM formoterol (T30-T50); synergy agonists (T65-T85)
Method: ASL heights were determined in pig tracheal preparations using synchrotron-based phase contrast imaging (PCI). The synchrotron beamline produces enough parallel spatial coherence X-ray to increase the contrast between airway lumen and ASL layer by PCI. When X-rays pass through the intact tracheal preparation, the difference in refractive index between ASL and airway lumen results in a phase shift of X-rays that causes a distinctive interference pattern shown on the charge-coupled device (CCD) detector as variations in X-ray intensity.

piglet tracheal rings = assay: Airway narrowing: lumen area of thin sliced tracheal rings, methacholine; set-up: species or system pig; settings: 0.3 or 0.6 mM methacholine alone
Method: Airway smooth muscle contraction measurement. Two methods were used to measure tracheal smooth muscle contraction. One is designed to measure airway narrowing using thin sliced tracheal rings. Piglet or ferret tracheal ring preparations of ˜2 mm were submerged and securely pinned on a Sylgard-lined Petri dish filled with KRB solution at 37° C. and pH 7.4. Digital images of tracheal ring contractions in response to agonists for 1-10 min intervals were recorded with a Nikon digital camera and the inner lumen surface area of the tracheal ring was calculated using ImageJ (NIH, MD/USA). The other method is using a force transducer. One end of an isolated ferret trachealis muscle bundle was secured in a Sylgard-lined Petri dish filled with KRB solution and the other end was attached by 26-gauge wire to a previously calibrated strain gauge (series 400A force transducer system, Cambridge Technology, MA/USA).

Cn1c(=O)c2c(-c3ccccc3)n3c(c2n(C)c1=O)C(c1ccc(Br)o1)Oc1ccc(C(=O)O)cc1-3 (centres unmarked) [BPO-27, benzopyrimido-pyrrolo-oxazinedione]
effect on Isc, raw trace (pig tracheal mucosa): steep drops in Isc and conductance

NC(=NCc1ccccc1)NC(=O)c1nc(Cl)c(N)nc1N [benzamil]
increase of baseline MCCV by ENaC inhibition (WT piglet tracheas; 10 μM benzamil vs without benzamil, piglets): ~6 times
baseline MCCV with benzamil (WT piglet tracheas; 10 μM benzamil, no agonists, piglets): 3.0±0.7 mm/min

COc1ccc(CC(C)NCC(O)c2ccc(O)c(NC=O)c2)cc1 (centres unmarked) [formoterol]
effect on TMV compared to the control [1]: barely had any effect
average rate of ASL height increase (ex vivo WT pig tracheas): 1.7±0.1 μm/min

CC(=O)OC(C)C[N+](C)(C)C (centres unmarked) [methacholine]
effect on MCCV (WT piglet tracheas; piglet tracheas, 10 μM formoterol or 0.3 μM methacholine alone): only a small increase
sustained reduction of lumen area (piglet tracheal rings): 20-40%

O=C(O)c1cccnc1Nc1cccc(C(F)(F)F)c1 [niflumic acid]
effect on Isc, raw trace (pig tracheal mucosa): steep drops in Isc and conductance
